Measured values as given in patent US8324190B2, “Treatment of proliferative disorders with amino-substituted (E)-2,6- dialkoxystyryl 4-substituted benzylsulfones” (Temple University—Of The Commonwealth System of Higher …, priority 2002, dated 2012).

Assays:
Test in all cases: Tumor cell viability assay, Trypan blue exclusion
Format in all cases: cell-based
Conditions in all cases: cell viability after 96 hours
[1] = system: breast adenocarcinoma cell line BT-20
Method: (§1) BT-20 is an estrogen-unresponsive cell line. NIH/3T3 and HFL are normal murine and human fibroblasts, respectively. BT-20, DLD-1 and H157 were grown in Dulbecco's modified Eagle's medium (DMEM) containing 10% fetal bovine serum supplemented with penicillin and streptomycin. DU145 was cultured in RPMI with 10% fetal bovine serum containing penicillin and streptomycin. NIH3T3 and HFL cells were grown in DMEM containing 10% calf serum supplemented with penicillin and streptomycin. Cells were plated at density levels of 1.0×10^5 cells per well in six-well plates. Cell cultures were maintained at 37° C. in a humidified atmosphere of 5% CO2. Cells were treated with compounds of the invention at various concentrations. Cell viability was determined after 96 hours by the Trypan blue exclusion method. […] The number of viable cells remaining after 96 hours of treatment was determined using hemacytometer following trypan blue staining. The number of viable cells has been plotted as the percent of Vehicle treated (control) cells.

[2] = system: colorectal carcinoma cell line DLD-1
Method: as §1

[3] = system: prostate carcinoma cell line DU-145
Method: as §1

[4] = system: non-small cell lung carcinoma cell line H157
Method: as §1

Measured: IC50

COc1cc(OC)c(/C=C/S(=O)(=O)Cc2ccc(OC)c(S(=O)(=O)NCC(=O)O)c2)c(OC)c1 [Example 1, (E)-2,4,6-Trimethoxystyryl-3-(carboxymethylsulfamyl)-4-methoxybenzylsulfone]
< 10 µM: all assays above

COc1cc(OC)c(/C=C/S(=O)(=O)Cc2ccc(OC)c(NC(=O)CC(=O)O)c2)c(OC)c1 [Example 2, (E)-2,4,6-Trimethoxystyryl-3-(carboxyacetamido)-4-methoxy-benzylsulfone]
< 10 µM: all assays above

COc1cc(OC)c(/C=C/S(=O)(=O)Cc2ccc(OC)c(NC(=N)N)c2)c(OC)c1 [Example 3, (E)-2,4,6-Trimethoxystyryl-3-(guanidino)-4-methoxybenzyl-sulfone]
< 10 µM: all assays above

COc1cc(OC)c(/C=C/S(=O)(=O)Cc2ccc(OC)c(NCC(=O)O)c2)c(OC)c1 [Example 4, (E)-2,4,6-Trimethoxystyryl-3-(carboxymethylamino)-4-methoxy-benzylsulfone]
< 10 µM: all assays above

COc1cc(OC)c(/C=C/S(=O)(=O)Cc2ccc(OC)c(NC(=O)c3cc([N+](=O)[O-])cc([N+](=O)[O-])c3)c2)c(OC)c1 [Example 5, (E)-2,4,6-trimethoxystyryl-3-(3,5,dinitrobenzamido)-4-methoxy-benzylsulfone]
< 10 µM: all assays above

COc1cc(OC)c(/C=C/S(=O)(=O)Cc2ccc(OC)c(NC(=O)c3cc(N)cc(N)c3)c2)c(OC)c1 [Example 6, (E)-2,4,6-trimethoxystyryl-3-(3,5,diaminobenzamido)-4-methoxy-benzylsulfone]
< 10 µM: all assays above

COc1cc(OC)c(/C=C/S(=O)(=O)Cc2ccc(OC)c(NC(=O)CCl)c2)c(OC)c1 [Example 7, (E)-2,4,6-Trimethoxystyryl-3-(chloroacetamido)-4-methoxybenzyl-sulfone]
< 10 µM: all assays above

COc1cc(OC)c(/C=C/S(=O)(=O)Cc2ccc(OC)c(NC(=O)CN3CCN(C)CC3)c2)c(OC)c1 [Example 8]
< 10 µM: all assays above

COc1cc(OC)c(/C=C/S(=O)(=O)Cc2ccc(OC)c(NC(=O)c3ccccc3)c2)c(OC)c1 [Example 9, (E)-2,4,6-Trimethoxystyryl-3-(benzamido)-4-methoxybenzyl-sulfone]
< 10 µM: all assays above

COc1cc(OC)c(/C=C/S(=O)(=O)Cc2ccc(OC)c(NC(=O)c3ccc([N+](=O)[O-])cc3)c2)c(OC)c1 [Example 10, (E)-2,4,6-Trimethoxystyryl-3-(4-nitrobenzamido)-4-methoxy-benzylsulfone]
< 10 µM: all assays above

COc1cc(OC)c(/C=C/S(=O)(=O)Cc2ccc(OC)c(NC(N)=O)c2)c(OC)c1 [Example 16, (E)-2,4,6-Trimethoxystyryl-3-(ureido)-4-methoxybenzylsulfone]
< 10 µM: all assays above

CNc1cc(CS(=O)(=O)/C=C/c2c(OC)cc(OC)cc2OC)ccc1OC [Example 17, (E)-2,4,6-Trimethoxystyryl-3-(N-methylamino)-4-methoxybenzyl-sulfone]
< 10 µM: all assays above

COc1cc(OC)c(/C=C/S(=O)(=O)Cc2ccc(OC)c(NC(C)=O)c2)c(OC)c1 [Example 18, (E)-2,4,6-Trimethoxystyryl-3-(acetamido)-4-methoxybenzyl-sulfone]
< 10 µM: all assays above

COc1cc(OC)c(/C=C/S(=O)(=O)Cc2ccc(OC)c(NS(=O)(=O)c3ccc([N+](=O)[O-])cc3[N+](=O)[O-])c2)c(OC)c1 [Example 19, (E)-2,4,6-Trimethoxystyryl-3-(2,4-dinitrobenzenesulfamyl)-4-methoxybenzylsulfone]
< 10 µM: all assays above

COc1cc(OC)c(/C=C/S(=O)(=O)Cc2ccc(OC)c(NS(=O)(=O)c3ccc(N)cc3N)c2)c(OC)c1 [Example 20, (E)-2,4,6-Trimethoxystyryl-3-(2,4-diaminobenzenesulfamyl)-4-methoxybenzylsulfone]
< 10 µM: all assays above

COc1cc(OC)c(/C=C/S(=O)(=O)Cc2ccc(OC)c(NC(=O)CN(C)C)c2)c(OC)c1 [Example 21, (E)-2,4,6-trimethoxystyryl-3-(dimethylaminoacetamido)-4-methoxybenzylsulfone]
< 10 µM: all assays above

COc1cc(OC)c(/C=C/S(=O)(=O)Cc2ccc(OC)c(NC(C)C(=O)O)c2)c(OC)c1 (stereo not shown) [Example 22, (E)-2,4,6-trimethoxystyryl-3-[(1-carboxyethyl)amino]-4-methoxybenzylsulfone]
< 10 µM: all assays above

COc1cc(OC)c(/C=C/S(=O)(=O)Cc2ccc(OC)c(NC(=O)c3ccc(N4CCN(C)CC4)cc3)c2)c(OC)c1 [Example 23, (E)-2,4,6-trimethoxystyryl-3-[4-(4-methylpiperazin-1-yl)-benzamido]-4-methoxybenzylsulfone]
< 10 µM: all assays above

COc1cc(OC)c(/C=C/S(=O)(=O)Cc2ccc(OC)c(NC(=O)CO)c2)c(OC)c1 [Example 24, (E)-2,4,6-trimethoxystyryl-3-(hydroxyacetamido)-4-methoxy-benzylsulfone]
< 10 µM: all assays above

COc1cc(OC)c(/C=C/S(=O)(=O)Cc2ccc(OC)c(NC(=O)C[n+]3ccccc3)c2)c(OC)c1 [Example 25, (E)-2,4,6-trimethoxystyryl-3-(pyridinium-1-yl)acetamido-4-methoxybenzylsulfone]
< 10 µM: all assays above

COc1cc(OC)c(/C=C/S(=O)(=O)Cc2ccc(OC)c(NC(=O)COC(C)=O)c2)c(OC)c1 [Example 26, (E)-2,4,6-trimethoxystyryl-3-(acetoxyacetamido)-4-methoxy-benzylsulfone]
< 10 µM: all assays above

COc1cc(OC)c(/C=C/S(=O)(=O)Cc2ccc(OC)c(NC(=O)C(C)O)c2)c(OC)c1 (stereo not shown) [Example 27, (E)-2,4,6-Trimethoxystyryl-3-(2-hydroxypropionamido)-4-methoxy benzylsulfone]
< 10 µM: all assays above
